Data taken from patent publication US5707984A, “Steroid nitrite/nitrate ester derivatives useful as anti-inflammatory drugs” (G. D. Searle & Co., priority 1995, dated 1998).

How the values were obtained:
[1] = test system: prostaglandin E2 (PGE2) synthesis in human fetal fibroblasts cells; assay: In vitro inhibition of prostaglandin E2 (PGE2) synthesis assay, human fetal fibroblasts treated with IL-1 then arachidonic acid, ELISA; format: cell-based; conditions: IL-1 16 h then arachidonic acid; compound 10 uM added with IL-1; basal 3.5, IL-1, AA alone 40.0
Procedure: (§1) Selected compounds were tested in three in vitro and two in vivo assays. The in vitro assays consisted of the following: measuring the effect of the compounds to inhibit the increase of prostaglandins following treatment of human fetal fibroblasts cells with interleukin-1 followed by arachidonic acid, measuring the effect of the compounds on cyclic GMP in the human fetal fibroblasts, and measuring the smooth muscle relaxant activity in rat aortic rings. The in vivo assay consists of measuring the antiinflammatory properties of the compounds in the carageenan treated rat air pouch model and the relaxant activity on acetylcholine-induced bronchoconstriction in guinea-pigs.
A. In vitro inhibiton of prostaglandin E2 (PGE2) synthesis assay: Human fetal fibroblasts cells were treated with IL-1 for 16 hours and then with 10 mM arachidonic acid (AA). The prostaglandin E2 levels were measured by an ELISA. Compounds were given at the time of addition of IL-1. This assay provides an in vitro assessment of the compound to block the induction of the proinflammatory agent prostaglandin E2 (PGE2): […]

[2] = test system: cyclic GMP in human fetal fibroblasts; assay: In vitro stimulation of cGMP production assay, human fetal fibroblasts with isobutylmethylxanthine, radioimmunoassay (NO reporter cell assay); format: cell-based; conditions: 120 min, isobutylmethylxanthine present; basal 1.8
Procedure: as §1
B. In vitro stimulation of cGMP production assay: Human fetal fibroblasts in the presence of isobutylmethylxanthine, an inhibitor of phosphodiesterase, were treated with compounds for 120 min and the intra-cellular cyclic GMP levels are measured by a radioimmunoassay. The cell line is utilized as a reporter cell assay to monitor the production of NO.

[3] = test system: rat aortic ring smooth muscle; assay: In vitro smooth relaxant activity assay, rat aortic rings precontracted with phenylephrine; format: cell-based; conditions: for EC50: Rattus norvegicus, in the presence of Cys and L-NAME, precontracted with phenylephrine (0.3 μM), read-out: Relaxation, EC50; for smooth muscle relaxant activity (in words): rat aortic rings, Cys and L-NAME, FIGS. 1 and 2
Procedure: as §1
C. In vitro smooth relaxant activity assay: Selected compounds were examined for the ability to relax smooth muscle. The rat aortic ring assay was utilized as a bioassay to measure the relaxant activity. The rings were precontracted with phenylephrine (0.3 μM) and subsequently compounds were added to the tissue bath in the presence of cysteine (Cys) and N^G -L-nitro-arginine methyl ester (L-NAME): […]

[4] = test system: prostaglandin E2 in pouch fluid (carageenan-induced inflammation); assay: In vivo anti inflammatory assay, rat carageenan air pouch
Procedure: as §1
D. In vivo anti inflammatory assay: EXAMPLE 1 was tested for antiinflammatory activity in vivo in the rat carageenan air pouch assay. Rats are injected subcutaneously with a volume of air over several days to form a pouch. […] The inflammation is measured by assaying the pouch fluid for prostaglandin E2 by ELISA. Examples 1 at 3 mg/kg dose blocked the increase in prostaglandin E2 by 60%.

CC(=O)OCC(=O)[C@@]1(O)CC[C@H]2[C@@H]3CCC4=CC(=O)C=C[C@]4(C)[C@H]3[C@@H](ON=O)C[C@@]21C [Example 1]
PGE2 [1]: 9.2 ng | cyclic GMP [2]: 4.8 fm/cell well | EC50 [3]: 20 nM | ability to reduce inflammation in vivo (in words) [4]: possess the ability to reduce inflammation in vivo | blocked the increase in prostaglandin E2 ([4]; 3 mg/kg): 60%

C[C@]12C=CC(=O)C=C1CC[C@@H]1[C@@H]2[C@@H](ON=O)C[C@@]2(C)[C@H]1CC[C@]2(O)C(=O)CO [Example 2]
EC50 [3]: 30 nM

CCC(=O)OCC(=O)[C@@]1(OC(=O)CC)[C@@H](C)C[C@H]2[C@@H]3CCC4=CC(=O)C=C[C@]4(C)[C@@]3(Cl)[C@@H](ON=O)C[C@@]21C [Example 11]
EC50 [3]: 40 nM

CCC(=O)OCC(=O)[C@@]1(OC(=O)CC)[C@@H](C)C[C@H]2[C@@H]3CCC4=CC(=O)C=C[C@]4(C)[C@@]3(Cl)[C@@H](O[N+](=O)[O-])C[C@@]21C [beclomethasone dipropionate-11-nitrate ester]
EC50 [3]: 2000 nM

CCC(=O)OCC(=O)[C@@]1(OC(=O)CC)[C@@H](C)C[C@H]2[C@@H]3CCC4=CC(=O)C=C[C@]4(C)[C@@]3(Cl)[C@@H](O)C[C@@]21C [beclomethasone dipropionate]
EC50 [3]: > 100000 nM | smooth muscle relaxant activity (in words) [3]: did not show any effect

CC(=O)OCC(=O)[C@@]1(O)CC[C@H]2[C@@H]3CCC4=CC(=O)C=C[C@]4(C)[C@H]3[C@@H](O[N+](=O)[O-])C[C@@]21C [prednisolone-11-nitrate ester-21-acetate]
EC50 [3]: 25000 nM

C[C@]12C=CC(=O)C=C1CC[C@@H]1[C@@H]2[C@@H](O)C[C@@]2(C)[C@H]1CC[C@]2(O)C(=O)CO [prednisolone]
PGE2 [1]: 9.9 ng | cyclic GMP [2]: 1.6 fm/cell well | smooth muscle relaxant activity (in words) [3]: did not show any effect
